Test results reported in patent publication US5453426A, “Sulfur-containing xanthine derivatives as adenosine antagonists” (priority 1994, dated 1995).
Values after ≈ are worked out from the molar mass of the structure shown. Where two headings read alike, the source gives them in different places.

Tests used:
A1 adenosine receptors = target: T1, A1 adenosine receptors (Rattus norvegicus, UniProt P25099); assay: Inhibition of binding of [3H]N6-phenylisopropyladenosine to A1 adenosine receptors in rat cerebral cortical membranes; details: for Ki (A2)/Ki (A1): ratio of A2 (rat striatum) to A1 (rat cortex) Ki; for Ki: rat cortical membranes, [3H]PIA, single determination in triplicate or average of three ± S.E.M., read-out: Ki A1-receptors; for A1-selectivity, in words: A1 versus A2 binding, relative to oxygen analogs
T1 construct: A1 adenosine receptors in rat cerebral cortical membranes; from tissue; host or cells: rat cerebral cortex membranes
T1 sequence (P25099 1-326): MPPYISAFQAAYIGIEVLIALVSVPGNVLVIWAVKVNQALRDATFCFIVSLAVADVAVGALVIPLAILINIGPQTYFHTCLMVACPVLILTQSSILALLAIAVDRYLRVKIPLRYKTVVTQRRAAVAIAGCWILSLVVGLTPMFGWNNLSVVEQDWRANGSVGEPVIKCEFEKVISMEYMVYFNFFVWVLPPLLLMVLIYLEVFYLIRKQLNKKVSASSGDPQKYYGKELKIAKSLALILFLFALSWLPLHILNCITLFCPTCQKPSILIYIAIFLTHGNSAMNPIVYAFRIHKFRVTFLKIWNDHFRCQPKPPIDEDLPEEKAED

A2 adenosine receptors [1] = target: T2, A2 adenosine receptors (Rattus norvegicus, UniProt P30543); parameters: A2 -adenosine receptors in rat striatal membranes; from tissue; host or cells: rat striatum membranes; details: cited from earlier work
A1 -adenosine receptors [2] = details: ref 10a; cited from earlier work
[3] = target: Nethylcarboxamidoadenosine-stimulated adenylat cyclase; details: PC12 cell membranes; printed in brackets in the A2 Ki column; ref 10b; read-out: Kb for inhibition of N-ethylcarboxamidoadenosine-stimulated adenylate cyclase; cited from earlier work
adenosine receptor = details: background; read-out: Ki-values as adenosine antagonists; cited from earlier work
A1 receptor = details: relative to 8-phenyltheophylline; cited from earlier work
A2 receptor = details: relative to 8-phenyltheophylline; cited from earlier work
A1 -adenosine receptors [4] = details: background; cited from earlier work
tracheal relaxation = details: background, ref 9a, cited from earlier work; for cardiac or behavioral stimulation: accompanying tracheal relaxation
cardiac depression = details: background, ref 9b; cited from earlier work
A2 adenosine receptors [5] = target: T2, A2 adenosine receptors; assay: Inhibition of binding of [3H]N-ethylcarboxamidoadenosine to A2-adenosine receptors in rat striatal membranes; details: for A2 affinity/potency, in words: relative to the analogs named in the text
Experimental: Affinity at A1 - and A2 -adenosine receptors was measured in competitive binding assays, using as radioligands [^3 H]N^6 -phenylisopropyladenosine^17 (with rat cerebral cortical membranes) and [^3 H]5'-N-ethylcarboxamidoadenosine (with rat striatal membranes),^18 respectively.
N^6 -Cyclopentyladenosine was present at 50 nM to inhibit binding of the ligand at A1 -adenosine receptors. Inhibition of binding by a range of concentrations of xanthines was assessed in triplicate in at least three separate experiments. IC50 -values were converted to Ki-values by the method of Bruns et al,^18 using a conversion factor derived from the affinity of [^3 H]N-ethylcarboxamidoadenosine at A2 receptors and the Cheng-Prusoff equation.^19

[6] = Limit of solubility in the A2 binding assay; type: physicochemical; details: binding assay medium
Source text: Thus, compound 22 is >285-fold A1 -selective in these binding assays.

[7] = values taken from Bruns et al. (ref 18)
[8] = read-out: Ki A2-receptors, rat striatal membranes, [3H]NECA, single determination in triplicate or average of three ± S.E.M.

T2 sequence (P30543 whole entry): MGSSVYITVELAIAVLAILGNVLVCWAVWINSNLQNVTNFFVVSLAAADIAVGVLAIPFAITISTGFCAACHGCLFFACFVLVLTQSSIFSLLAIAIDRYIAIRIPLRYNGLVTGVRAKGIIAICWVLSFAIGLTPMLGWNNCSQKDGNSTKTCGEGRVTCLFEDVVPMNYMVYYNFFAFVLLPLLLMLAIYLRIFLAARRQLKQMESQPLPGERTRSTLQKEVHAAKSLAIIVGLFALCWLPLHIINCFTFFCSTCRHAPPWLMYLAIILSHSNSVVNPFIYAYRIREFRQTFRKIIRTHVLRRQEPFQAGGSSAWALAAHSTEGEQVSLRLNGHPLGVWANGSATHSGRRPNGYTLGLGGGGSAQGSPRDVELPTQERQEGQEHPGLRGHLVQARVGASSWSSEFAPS

SMILES | Ki (A2)/Ki (A1) (A1 adenosine receptors) | Ki (A1 adenosine receptors) | Ki (A2 adenosine receptors [5]) | further results
CCCn1c(=O)c2[nH]c(-c3ccc(OCC(=O)NCCNC)cc3)nc2n(CCC)c1=O [Compound 32] | – | – | – | Kb [3]: 9.3 ± 2.1 nM
Cn1c(=O)c2[nH]cnc2n(C)c1=O [Compound 1a, theophylline] | – | – | – | Ki (adenosine receptor): ≥ 10000 nM
Cn1c(=O)c2sc(-c3ccccc3)nc2n(C)c1=O | – | – | – | reduction of activity at an A1 receptor by thio-substitution (A1 receptor): 1000 fold; reduction of activity at an A2 receptor by thio-substitution (A2 receptor): ~100 fold
CCCn1c(=O)c2[nH]c(-c3ccc(OCC(=O)NCCN)cc3)nc2n(CCC)c1=O [Compound 3, 8-(4-(2-amino-ethylaminocarbonylmethyloxy)phenyl)-1,3-dipropylxanthine] | – | – | – | potency in binding at A1-adenosine receptors versus theophylline (A1 -adenosine receptors [4]): more than four orders of magnitude more potent than theophylline
Cn1c(=S)c2c(ncn2C)n(C)c1=O [6-thiocaffeine] | – | – | – | cardiac or behavioral stimulation (tracheal relaxation): without cardiac or behavioral stimulation; tracheal relaxation (tracheal relaxation): induce tracheal relaxation; cardiac effect (cardiac depression): cause cardiac depression rather than stimulation
CCCn1c(=O)c2[nH]c(C3CCCC3)nc2n(CCC)c1=S [Compound 14] | 479 | 0.655 ± 0.058 nM | 314 ± 62 nM | A1-selectivity, in words (A1 adenosine receptors): a greater margin of A1 -selectivity; A1 affinity/potency, in words (A1 adenosine receptors; relative to the analogs named in the text): the A1 affinity was enhanced by the thio substitution
CCCn1c(=O)c2[nH]c(-c3ccc(OCC(=O)NCCNC(=O)[C@@H](CCCCNC(=O)OCc4ccccc4)NC(=O)OC(C)(C)C)cc3)nc2n(CCC)c1=S [Compound 39] | 10 | – | 870 nM | –
CCCn1c(=O)c2[nH]c(-c3cccs3)nc2n(CCC)c1=S [Compound 22, 1,3-Dipropyl-8-(2-thienyl)-2-thioxanthine] | > 285 | 35.1 ± 6 nM | > 10000 nM | A1-selectivity (A1 adenosine receptors; A1 (rat cortex) versus A2 (rat striatum) binding): > 285 fold; A1-selectivity, in words (A1 adenosine receptors): a greater margin of A1 -selectivity; A2 affinity/potency, in words (A2 adenosine receptors [5]): did not bind measurably to A2 -receptors at its limit of solubility; solubility [6]: ~10 µM (≈ 3.34 µg/mL)
CCCn1c(=O)c2[nH]c(-c3ccsc3)nc2n(CCC)c1=O [Compound 20] | 12.1 | 10 ± 0.03 nM | 121 ± 18.2 nM | A2 affinity/potency, in words (A2 adenosine receptors [5]): Preference for 3-thienyl derivatives was evident particularly at the A2 -subtype
CCCn1c(=O)c2[nH]c(-c3cccs3)nc2n(CCC)c1=O [Compound 19] | 23.6 | 16.1 ± 1.96 nM | 381 ± 27.7 nM | –
Cn1c(=S)c2[nH]cnc2n(C)c1=O [6-thiotheophylline] | – | – | – | cardiac or behavioral stimulation (tracheal relaxation): without cardiac or behavioral stimulation; tracheal relaxation (tracheal relaxation): induce tracheal relaxation; cardiac effect (cardiac depression): cause cardiac depression rather than stimulation
CCCn1c(=O)c2[nH]c(-c3ccc(OCC(=O)NCCN(C)C)cc3)nc2n(CCC)c1=S [Compound 35] | 11 | 2.55 ± 0.6 nM | 27.9 ± 7.5 nM | –
CCCn1c(=O)c2[nH]c(C3CCCC3)nc2n(CCC)c1=O [Compound 2b, 8-cyclopentyl-1,3-dipropylxanthine] | – | – | – | potency in binding at A1-adenosine receptors versus theophylline (A1 -adenosine receptors [4]): more than four orders of magnitude more potent than theophylline

Second part, led by results:

Ki (A2)/Ki (A1) (A1 adenosine receptors) | Ki (A1 adenosine receptors) | Ki (A2 adenosine receptors [5]) | SMILES | further results
13.6 | – | – | Cn1c(=O)c2nc(-c3ccoc3)[nH]c2n(C)c1=O [Compound 16, reference compound] | Ki (A2 adenosine receptors [1]; [7]): 984 ± 70 nM
56 | – | – | CCCn1c(=O)c2[nH]c(-c3ccc(OCC(=O)NCCNC(=O)CCCCCCC(=O)ON4C(=O)CCC4=O)cc3)nc2n(CCC)c1=O [Compound 44] | irreversible inhibitor of A1-adenosine receptors at concentrations (A1 -adenosine receptors [2]): greater than 50 nM; Ki (A2 adenosine receptors [1]; values taken from Jacobson et al. (ref 10)): 207 ± 57 nM
6.97 | 233 ± 48.6 nM | 1630 nM | Cn1c(=O)c2[nH]c(-c3cccs3)nc2n(C)c1=O [Compound 17] | –
10.3 | 11.3 ± 1.5 nM | 116 ± 25 nM | CCCn1c(=O)c2[nH]c(-c3ccc(OCC(=O)NCCNC(=O)Cc4ccc(I)s4)cc3)nc2n(CCC)c1=O [Compound 48] | –
> 238 | 42 ± 3 nM | > 10000 nM | CCCn1c(=O)c2[nH]c(-c3ccc(OCC(=O)OCC)cc3)nc2n(CCC)c1=O [Compound 29] | –
5.86 | 53.8 ± 7.1 nM | 315 ± 60.8 nM | CCCn1c(=O)c2[nH]c(-c3ccc(OCC(=O)O)cc3)nc2n(CCC)c1=S [Compound 28, 8-(4-(carboxymethyloxy)phenyl)-1,3-dipropyl-2-thioxanthine] | enhancement of potency at A2-receptors by the 2-thio substitution (A2 adenosine receptors [5]; 28 versus oxygen analog 27): 7 fold
> 740 | 6.78 ± 0.64 nM | > 5000 nM | CCCn1c(=O)c2[nH]c(-c3ccc(OCC(=O)OCC)cc3)nc2n(CCC)c1=S [Compound 30] | –
7.87 | 221 ± 43.3 nM | – | Cn1c(=O)c2nc(-c3cccs3)[nH]c2n(C)c1=S [Compound 21] | Ki (A2 adenosine receptors [5]; [8]): 1740 nM
44.4 | 202 ± 26 nM | 8980 nM | Cn1c(=S)c2[nH]c(C3CCCC3)nc2n(C)c1=O [Compound 54] | –
37.8 | 58 ± 3 nM | – | CCCn1c(=O)c2[nH]c(-c3ccc(OCC(=O)O)cc3)nc2n(CCC)c1=O [Compound 27] | Ki (A2 adenosine receptors [5]; [8]): 2200 nM
7.94 | – | – | Cn1c(=O)c2[nH]c(-c3ccco3)nc2n(C)c1=O [Compound 15, reference compound] | Ki (A2 adenosine receptors [1]; [7]): 2780 nM
